From patent publication US10786483B2, “Tumescent contravenom drug delivery” (HK Pharma, priority 2016, dated 2020)
Where two headings read alike, the source gives them in different places.

Tests used:
[1] = target: Bee Venom sPLA2 (Apis mellifera, UniProt P00630); details: cited from earlier work
[2] = tested on: sPLA2 activity in serum; details: rat serum; read-out: IC50, inhibitory effect on sPLA2 activity in serum; cited from earlier work
[3] = tested on: sPLA2 activity in serum; details: rabbit serum; read-out: IC50, inhibitory effect on sPLA2 activity in serum; cited from earlier work
[4] = tested on: sPLA2 activity in serum; details: guinea pig serum; read-out: IC50, inhibitory effect on sPLA2 activity in serum; cited from earlier work
[5] = tested on: sPLA2 activity in serum; details: human serum; read-out: IC50, inhibitory effect on sPLA2 activity in serum; cited from earlier work
[6] = tested on: snake venoms; details: mice; cited from earlier work
[7] = precipitation on mixing acyclovir, lidocaine and epinephrine; assay type: physicochemical
Source text: Some drugs are considered incompatible because of precipitation when mixed together in the same solution. […] This tumescent solution can be safely and painlessly injected subcutaneously into a human patient. This is surprising and unexpected because the FDA approved package insert labeling for acyclovir for IV infusion states explicitly the subcutaneous delivery must be avoided. Similar increased solubility and drug-drug compatibility of mixtures of multiple contravenom drugs can be expected with sufficient tumescent dilution. This is a unique and unexpected advantage of tumescent contravenom delivery.

[8] = tested on: platelet aggregation; details: cited from earlier work
[9] = Source text: Heart rates, before, during, and after tumescent infiltration and immediately after liposuction were compared.
[10] = tolerance interval analysis, probability that Cmax >=6 μg/mL; set-up: species or system human; details: 99% confidence
Description: Tolerance intervals were calculated at a 99% level of confidence.

[11] = 41 procedures, 14 subjects, 19.2 to 52 mg/kg, over the 24-hour study period
Description: Volunteers participated in 1 to 2 infiltration studies without liposuction and then one study with tumescent liposuction totally by local anesthesia.
Individual subjects served as their own controls. Large volume (≥500 mL) tumescent infiltration was accomplished using a peristaltic tumescent infiltration pump (HKSurgical.com, San Clemente, Calif.).
Serum samples were obtained from a peripheral vein using an indwelling 20-gauge IV catheter by a 2-syringe sampling technique. The first syringe contained 2 mL saline to flush the IV catheter and then remove and discard 2 mL of blood.
For each subject, the initial infiltration procedures were done without subsequent liposuction, and the final tumescent infiltration was followed by liposuction after allowing at least 1 hour of detumescence for gradual dispersion of subcutaneous tumescent fluid. Tumescent infiltration procedures were separated by at least 1 week. The liposuction aspirate was collected in clear plastic volumetric canisters. After allowing at least 1 hour for gravitational separation of the lipid and aqueous aspirate, the resulting supernatant fat, infranatant blood-tinged tumescent anesthetic solution, and the total aspirate volume were recorded.
AUC∞, Cmax, and Tmax without and with liposuction were compared by the paired t test.

[12] = tested on: lymphatic smooth muscle contraction; details: rats, applied topically; cited from earlier work
[13] = cited from earlier work
[14] = with liposuction, epinephrine dose 1.6 to 4.3 mg
[15] = without liposuction, epinephrine dose 1.2 to 4.3 mg

Chain of Bee Venom sPLA2 (P00630 34-167 limits assumed): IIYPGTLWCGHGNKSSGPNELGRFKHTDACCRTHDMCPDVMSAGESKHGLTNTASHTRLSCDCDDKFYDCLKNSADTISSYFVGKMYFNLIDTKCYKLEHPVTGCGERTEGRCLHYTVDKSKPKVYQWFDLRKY

For `CCc1c(C(=O)C(N)=O)c2c(OCC(=O)OC)cccc2n1Cc1ccccc1` [Me-Varespladib, methyl varespladib], which “IC50, sPLA2 inhibition” value [1] is on record?
Its value is “*Indeterminate”.

Which IC50 [2] does the source give for `CCc1c(C(=O)C(N)=O)c2c(OCC(=O)O)cccc2n1Cc1ccccc1` [Varespladib] here?
Its IC50 is 8.1 nM.

And the IC50 [3]?
The IC50 was 5 nM.

What about the IC50 [4] of the same compound?
Its IC50 is 3.2 nM.

What about the IC50 [5] of the same compound?
Its IC50 is 6.2 nM.

And the “neutralizing a wide variety of snake venoms” value [6]?
Its value is “effective”.

With `Nc1nc2c(ncn2COCCO)c(=O)[nH]1` [acyclovir] as the compound, how does the precipitation on mixing ([7]; 1 gm acyclovir (1 g/20 ml) with 1 gram lidocaine (1 gram/100 ml) with epinephrine (1 mg/L), 120 ml mixture) read?
The precipitation on mixing was “immediate precipitation”.

What about the precipitation on mixing ([7]; 1 gm acyclovir and 1 gm lidocaine in 100 ml, 250 ml and 500 ml of saline) of the same compound?
The precipitation on mixing was “precipitation”.

What about the precipitation on mixing ([7]; 1 gm acyclovir, 1 gm lidocaine and 1 mg epinephrine in 1000 ml of saline) of the same compound?
The precipitation on mixing was “no precipitation”.

Which “platelet aggregation induced by ADP” value [8] does the source give for `CCOC(=O)c1ccc(N)cc1` [benzocaine] here?
The value was “inhibit”.

For `CCCCN1CCCCC1C(=O)Nc1c(C)cccc1C` (centres unmarked) [bupivacaine], which “platelet aggregation induced by ADP” value [8] is on record?
The value was “inhibit”.

Which results are given for `CNC[C@H](O)c1ccc(O)c(O)c1` [epinephrine]?
clinical evidence of toxicity ([9]; 14 subjects, 41 procedures): no clinical evidence; episodes of tachycardia ([9]; 41 studies, most patients received oral clonidine 0.1 mg): no episodes; mean difference in heart rate before infiltration and after liposuction [9, 14]: +5; range of difference in heart rate before infiltration and after liposuction [9, 14]: −12 to +33; mean difference in heart rate before and after infiltration [9, 15]: −3.4; range of difference in heart rate before and after infiltration [9, 15]: −24 to +17

What does the source list for `CCN(CC)CC(=O)Nc1c(C)cccc1C` [lidocaine]?
risk of lidocaine serum concentration >6 μg/mL ([10]; No liposuction, 40 mg/kg): 1/750; risk of lidocaine serum concentration >6 μg/mL ([10]; No liposuction, 50 mg/kg): 1/15; risk of lidocaine serum concentration >6 μg/mL ([10]; No liposuction, 55 mg/kg): 1/4; risk of lidocaine serum concentration >6 μg/mL ([10]; No liposuction, […] mg/kg): 1/80; risk of lidocaine serum concentration >6 μg/mL ([10]; With liposuction, 50 mg/kg): 1/500; risk of lidocaine serum concentration >6 μg/mL ([10]; With liposuction, 55 mg/kg): 1/100; lidocaine-associated adverse event ([9]; one subject, body mass index 20, 45 mg/kg without liposuction, approximately 12 hours after infiltration): transient nausea; measured serum lidocaine concentrations, all [11]: < 6 µg/mL; lidocaine concentrations that consistently inhibit in-vitro platelet aggregation ([8]; aggregation induced by ADP, epinephrine and collagen): ≥ 0.5 mg/mL; effect on platelet aggregation ([8]; at safe systemic concentrations (e.g. ≤6 micrograms/ml)): no effect; platelet aggregation induced by ADP [8]: inhibit; lymph transit time [12]: prolong; survival time after injection of venom [12]: increase; recommended maximal dosage, FDA-approved package insert labeling ([13]; lidocaine with epinephrine, infiltration local anesthesia): 7 mg/kg; maximal safe dosage recommended by American Society for Dermatologic Surgery guidelines ([13]; liposuction totally by local anesthesia): 55 mg/kg
